In US20160296499A1, “Spiroindoline Antiparasitic Derivatives” (ZOETIS SERVICES LLC, priority 2013, published 2016):
Where two headings read alike, the source gives them in different places.

What was measured:
Haemonchus contortus L3 = assay: Haemonchus contortus, Larvae Stage 3 (HcL3) In Vitro Assay; conditions: Haemonchus contortus
[1] = tested on: Dirofilaria immitis microfilariae; assay: Dirofilaria immitis, Microfilariae (DiMF) In Vitro Assay; conditions: Dirofilaria immitis
[2] = biological target: T1, bovine vesicular acetylcholine transporter (VAChT) (Bos taurus, UniProt E1BK36); assay: Radioligand Binding Assay; conditions: Bovine binding Ki, CHO-K1 membranes with recombinant bovine VAChT, [3H]Compound X6 0.3 nM
T1 sequence (E1BK36 1-524): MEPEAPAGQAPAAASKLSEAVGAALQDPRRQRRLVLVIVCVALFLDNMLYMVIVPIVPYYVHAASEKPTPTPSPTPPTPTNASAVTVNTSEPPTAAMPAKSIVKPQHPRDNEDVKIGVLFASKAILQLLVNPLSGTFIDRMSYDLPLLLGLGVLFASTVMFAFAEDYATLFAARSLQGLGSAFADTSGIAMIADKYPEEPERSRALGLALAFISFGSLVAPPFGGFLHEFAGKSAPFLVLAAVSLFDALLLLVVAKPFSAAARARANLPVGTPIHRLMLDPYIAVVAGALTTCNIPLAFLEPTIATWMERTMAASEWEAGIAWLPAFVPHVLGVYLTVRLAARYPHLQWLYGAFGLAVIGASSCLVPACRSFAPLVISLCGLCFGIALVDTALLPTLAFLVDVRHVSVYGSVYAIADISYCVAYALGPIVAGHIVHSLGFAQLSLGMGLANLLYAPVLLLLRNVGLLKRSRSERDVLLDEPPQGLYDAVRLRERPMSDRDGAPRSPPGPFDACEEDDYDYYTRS
Protocol: To measure binding affinity, CHO-K1 cells recombinantly expressing the bovine VAChT was generated as a stable cell line and subsequently used to produce membrane preparations.
Radioligand binding assays were conducted in disposable polypropylene 96-well plates. VAChT competition assays were initiated by the addition of bovine recombinant membrane homogenate (50 μg/well) in assay buffer (50 mM Tris-HCl, 120 mM NaCl, 5 mM KCl, 1 mM MgCl, and 2 mM CaCl, pH 7.4) containing [^3H]Compound X6 (0.3 nM) with or without competing ligand. The assay was allowed to equilibrate for 120 minutes at room temperature, before being filtered onto GF/C unifilter plates pre-coated in 0.3% polyethylenimine (Perkin Elmer Life and Analytical Sciences, Boston, Mass.) with a Filtermate 96 harvester (PerkinElmer Life and Analytical Sciences). Filters were washed in ice-cold 50 mM Tris-HCl, pH 7.4 buffer and then counted for radioactivity in a TopCount microplate scintillation counter after addition of 50 μL Microscint 20 (PerkinElmer). Non-specific binding was measured in the presence of 10 μM Compound X6. Apparent dissociation constants (Ki values) from the competition experiments were calculated using an iterative nonlinear regression curve-fitting program (GraphPAD Prism 6.0 Software, San Diego, Calif.) and are reported in Table 2.

[3] = 96 h, read-out: HcL3 MEC, Minimal Effective Concentration whereby worm motility is inhibited by approximately 70%, 37° C., tested 0.001-100 μM
[4] = 72 h, read-out: Di MF, MEC, decrease in microfilariae motility by visual assessment, curve starting at 100 μM
[5] = 96 hours, 37° C., read-out: HcL3 MEC

Structure (SMILES)	minimal effective concentration (Haemonchus contortus L3; [3])	minimal effective concentration [1, 4]	Ki [2]	minimal effective concentration (Haemonchus contortus L3; [5])	minimal effective concentration ([1]; 72 hours, read-out: Di MF)
Cc1nc2c3c(ccc2s1)N(C(=O)NCc1ccnc(Cl)c1)CC31CCN(C/C=C/c2ccc(C(F)(F)F)cn2)CC1 [Example 45, (E)-N-((2-chloropyridin-4-yl)methyl)-2′-methyl-1-(3-(5-(trifluoromethyl)pyridin-2-yl)allyl)spiro[piperidine-4,8′-thiazolo[4,5-e]indole]-6′(7′H)-carboxamide]	> 100 µM	33 µM	3220 nM	–	–
COc1ccc(/C=C/CN2CCC3(CC2)CN(C(=O)NCc2ccnc(Cl)c2)c2ccc4sc(C)nc4c23)cc1 [Example 46, (E)-N-((2-chloropyridin-4-yl)methyl)-1-(3-(4-methoxyphenyl)allyl)-2′-methylspiro[piperidine-4,8′-thiazolo[4,5-e]indole]-6′(7′H)-carboxamide]	> 100 µM	10 µM	883 nM	–	–
O=C(NCc1ccnc(Br)c1)N1CC2(CCN(C/C=C/c3ccc(Cl)c(Cl)c3)CC2)c2c1ccc1scnc21 [Example 47, (E)-N-((2-bromopyridin-4-yl)methyl)-1-(3-(3,4-dichlorophenyl)allyl)spiro[piperidine-4,8′-thiazolo[4,5-e]indole]-6′(7′H)-carboxamide]	100 µM	10 µM	919 nM	–	–
Cn1ncc2c3c(ccc21)N(C(=O)NCc1ccnc(Cl)c1)CC31CCN(C/C=C/c2ccc(Cl)cc2)CC1 [Example 51, (E)-1-(3-(4-chlorophenyl)allyl)-N-((2-chloropyridin-4-yl)methyl)-3′-methyl-3′H-spiro[piperidine-4,8′-pyrrolo[3,2-e]indazole]-6′(7′H)-carboxamide]	–	–	518 nM	> 100 µM	33.3 µM
Cn1ncc2c3c(ccc21)N(C(=O)NCc1ccnc(Cl)c1)CC31CCN(C/C=C/c2ccc(F)cc2)CC1 [Example 52, (E)-N-((2-chloropyridin-4-yl)methyl)-1-(3-(4-fluorophenyl)allyl)-3′-methyl-3′H-spiro[piperidine-4,8′-pyrrolo[3,2-e]indazole]-6′(7′H)-carboxamide]	> 100 µM	10 µM	778 nM	–	–
Cn1ncc2c3c(ccc21)N(C(=O)NCc1ccnc(Cl)c1)CC31CCN(C/C=C/c2ccc(C(F)(F)F)cn2)CC1 [Example 53, (E)-N-((2-chloropyridin-4-yl)methyl)-3′-methyl-1-(3-(5-(trifluoromethyl)pyridin-2-yl)allyl)-3′H-spiro[piperidine-4,8′-pyrrolo[3,2-e]indazole]-6′(7′H)-carboxamide]	> 100 µM	33 µM	1930 nM	–	–
COc1ccc(/C=C/CN2CCC3(CC2)CN(C(=O)NCc2ccnc(Cl)c2)c2ccc4c(cnn4C)c23)cc1 [Example 54, (E)-N-((2-chloropyridin-4-yl)methyl)-1-(3-(4-methoxyphenyl)allyl)-3′-methyl-3′H-spiro[piperidine-4,8′-pyrrolo[3,2-e]indazole]-6′(7′H)-carboxamide]	> 100 µM	33 µM	1400 nM	–	–
O=C(NCc1ccnc(Cl)c1)N1CC2(CCN(C/C=C/c3ccc(Cl)c(Cl)c3)CC2)c2cc(OC(F)(F)F)ccc21 [Example 55, (E)-N-((2-chloropyridin-4-yl)methyl)-1′-(3-(3,4-dichlorophenyl)allyl)-5-(trifluoromethoxy)spiro[indoline-3,4′-piperidine]-1-carboxamide]	3.3 µM	5.7 µM	876 nM	–	–
O=C(NCc1ccnc(Cl)c1)N1CC2(CCN(C/C=C/c3ccc(Cl)c(Cl)c3)CC2)c2c1cccc2C(F)(F)F [Example 56, (E)-N-((2-chloropyridin-4-yl)methyl)-1′-(3-(3,4-dichlorophenyl)allyl)-4-(trifluoromethyl)spiro[indoline-3,4′-piperidine]-1-carboxamide]	–	–	432 nM	4.5 µM	9.1 µM
O=C(NCc1cnc(Cl)s1)N1CC2(CCN(C/C=C/c3ccc(Cl)cc3)CC2)c2c(OC(F)(F)F)ccc(Cl)c21 [Example 57, (E)-7-chloro-1′-(3-(4-chlorophenyl)allyl)-N-((2-chlorothiazol-5-yl)methyl)-4-(trifluoromethoxy)spiro[indoline-3,4′-piperidine]-1-carboxamide]	70 µM	4 µM	954 nM	–	–
O=C(NCc1ccnc(Cl)c1)N1CC2(CCN(C/C=C/c3ccc(F)cc3)CC2)c2c(OC(F)(F)F)ccc(Cl)c21 [Example 58, (E)-7-chloro-N-((2-chloropyridin-4-yl)methyl)-1′-(3-(4-fluorophenyl)allyl)-4-(trifluoromethoxy)spiro[indoline-3,4′-piperidine]-1-carboxamide]	100 µM	10 µM	1360 nM	–	–
O=C(NCc1ccnc(Cl)c1)N1CC2(CCN(C/C=C/c3ccc(Cl)cc3)CC2)c2c(Cl)cc(Cl)cc21 [Example 59, (E)-4,6-dichloro-1′-(3-(4-chlorophenyl)allyl)-N-((2-chloropyridin-4-yl)methyl)spiro[indoline-3,4′-piperidine]-1-carboxamide]	–	–	284 nM	100 µM	10 µM
O=C(NCc1ccnc(F)c1)N1CC2(CCN(C/C=C/c3ccc(Cl)cc3)CC2)c2c(Cl)cc(Cl)cc21 [Example 60, (E)-4,6-dichloro-1′-(3-(4-chlorophenyl)allyl)-N-((2-fluoropyridin-4-yl)methyl)spiro[indoline-3,4′-piperidine]-1-carboxamide]	100 µM	10 µM	986 nM	–	–
O=C(NCc1ccnc(F)c1)N1CC2(CCN(C/C=C/c3ccc(Cl)cc3)CC2)c2c1cc(Cl)c(F)c2Cl [Example 61, (E)-4,6-dichloro-1′-(3-(4-chlorophenyl)allyl)-5-fluoro-N-((2-fluoropyridin-4-yl)methyl)spiro[indoline-3,4′-piperidine]-1-carboxamide]	100 µM	10 µM	671 nM	–	–
O=C(NCc1ccnc(F)c1)N1CC2(CCN(C/C=C/c3ccc(Cl)cc3)CC2)c2c1ccc(Cl)c2Cl [Example 62, (E)-4,5-dichloro-1′-(3-(4-chlorophenyl)allyl)-N-((2-fluoropyridin-4-yl)methyl)spiro[indoline-3,4′-piperidine]-1-carboxamide]	3.3 µM	10 µM	329 nM	–	–
O=C(NCc1ccnc(F)c1)N1CC2(CCN(C/C=C/c3ccc(Cl)cc3)CC2)c2c1ccc(F)c2Cl [Example 63, (E)-4-chloro-1′-(3-(4-chlorophenyl)allyl)-5-fluoro-N-((2-fluoropyridin-4-yl)methyl)spiro[indoline-3,4′-piperidine]-1-carboxamide]	8.2 µM	5.7 µM	182 nM	–	–
O=C(NCc1cnc(Cl)s1)N1CC2(CCN(C/C=C/c3ccc(Cl)cc3)CC2)c2c1ccc(Cl)c2Cl [Example 64, (E)-4,5-dichloro-1′-(3-(4-chlorophenyl)allyl)-N-((2-chlorothiazol-5-yl)methyl)spiro[indoline-3,4′-piperidine]-1-carboxamide]	–	–	116 nM	10 µM	5.7 µM
